Read-outs that look alike come from different tables or passages of the source.
Tested on: 80S14 (p21-deficient) cells
Test: Cytotoxicity assay using isogenic cell lines: IC50 in 80S14 (p21-deficient) cells, SRB
Type: cell-based, human
Protocol: Cytotoxicity Assay Using Isogenic Cell Lines: • 1. 80S14 (p21-deficient) cells were cultured in RPMI 1640 medium (Gibco/Invitrogen Life technologies) supplemented with 10% fetal bovine serum (FBS, Gibco) and 10 μg/ml gentamycin (Gibco). Cells were maintained at 37° C. under 7% CO2 • 2. Cells were plated at 6×10^4/ml (0.2 ml/well; 12,000 cells/well) in 96-well microtiter plates (Falcon or Corning/Costar) and incubated at 37° C. overnight (18-24 hours). • 3. 2-5 μl of the test agent [200 μg/ml stock in 20% DMSO/20 mM HEPES, pH 7.5 (Gibco)] was added to each well to achieve a final concentration of 2-5 μg/ml. Cells were incubated with the test compounds for 5 days at 37° C. • 4. Surviving cells were fixed with 50 μl 50% trichloroacetic acid (Sigma; 10% final concentration) for 1 hour at 4° C. • 5. Plates were rinsed twice with water (0.3 ml per wash using MRD8 robot), and allowed to dry. • 6. Sulforhodamine B (SRB) (Sigma; 0.4% in 1% acetic acid, 50 μl per well; MRD8 robot) was added and plates kept at room temperature for 10 minutes. • 7. Excess dye was removed by washing with 1% acetic acid (3 times, 0.3 ml per wash; MRD8 robot) and allowed to dry. • 8. The dye was solubilized in Tris base (Sigma; 10 mM, 150 μl per well). Plates were kept at room temperature for 30 minutes to allow the dye to diffuse. • 9. Absorbance was measured at 540 nm. • 10. The percentage of cells surviving drug treatment relative to control wells (no drug) was determined. • 11. The difference in % cell survival between the two cell lines was calculated. • 12. Compounds producing a difference score of >50 were considered to be selective for the p21-deficient cells and were evaluated further: Determination of selectivity of compounds for p21−/− cells: • 1. 80S14 cells were cultured as described above. • 2. Cells were seeded in 96-well microtiter plates at 12,000 cells/well (either 0.15 ml/well of 8×10^4 cells/ml suspension, or 0.2 ml/well of 6×10^4 cells/ml suspension). Plates were incubated at 37° C. overnight (18-24 hours). • 3. Serial dilutions of the test agent were added to each well. Dilutions were prepared either in 40% DMSO/20% methanol/20 mM HEPES, pH 7.5 (Gibco) or directly in growth medium. One of two dose ranges were used: 5 pM to 50 μM or 170 pg/ml to 10 μg/ml. Cells were incubated with the test compounds for 5 days at 37° C. • 4. Surviving cells were fixed with 50 μl 50% trichloroacetic acid (Sigma; 10% final concentration) for 1 hour at 4° C. • 5. Plates were rinsed extensively in water, and allowed to dry. • 6. Sulforhodamine B (Sigma; 0.4% in 1% acetic acid, 70 μl per well) was added and plates kept at room temperature for 10 minutes. • 7. Excess dye was removed by washing 5 times with 1% acetic acid and plates were allowed to dry. • 8. The dye was solubilized in Tris base (Sigma; 10 mM, 150 μl per well). Plates were placed on a titer plate shaker (Lab Line Instruments) for 5 minutes to allow the dye to diffuse. • 9. Absorbance was measured at 560 nm.
10. The drug concentration that inhibits cell proliferation by 50% relative to untreated controls (IC50) was determined from cytotoxicity curves.

[1] = Homo sapiens, 120 h, 80S14 p21-deficient cells, 5 days incubation, SRB, read-out: IC50 for 80SI4
[2] = Homo sapiens, 120 h, 80S14 (p21-deficient) cells, 5 days, SRB, class symbols, read-out: IC50 for 80S14
[3] = 80S14 p21-deficient cells, 5 days incubation, SRB, read-out: IC50 for 80SI4
[4] = Homo sapiens, 80S14, 120 h, read-out: IC50 for 80S14 (uM)
[5] = Homo sapiens, 80S14, 120 h, read-out: IC50 for 80SI4 (uM)

C=C(C)C(=O)Nc1cccc(-c2ccnc3c(C(=O)c4cccs4)cnn23)c1 [Example 43, 2-methyl-N-{3-[3-(thien-2-ylcarbonyl)pyrazolo[1,5-a]pyrimidin-7-yl]phenyl}acrylamide]
IC50 [1]: < 1 µM

CC(C)(C)COC(=O)NCC(=O)Nc1cccc(-c2ccnc3c(C(=O)c4cccs4)cnn23)c1 [Example 121, neopentyl 2-oxo-2-({3-[3-(thien-2-ylcarbonyl)pyrazolo[1,5-a]pyrimidin-7-yl]phenyl}amino)ethylcarbamate]
IC50 [1]: 1 to 10 µM

CCC(C)CNc1cccc(-c2ccnc3c(C(=O)c4cccs4)cnn23)c1 (stereo not drawn) [Example 402, (7-{3-[(2-Methylbutyl)amino]phenyl}pyrazolo[1,5-a]pyrimidin-3-yl)(thien-2-yl)methanone]
IC50 [2]: 1 to 10 µM

CCC(C)C(=O)NCC(=O)Nc1cccc(-c2ccnc3c(C(=O)c4cccs4)cnn23)c1 (stereo not drawn) [Example 130, 2-methyl-N-[2-oxo-2-({3-[3-(thien-2-ylcarbonyl)pyrazolo[1,5-a]pyrimidin-7-yl]phenyl}amino)ethyl]butanamide]
IC50 [1]: 10 to 50 µM

O=C(c1ccco1)c1cnn2c(-c3cccc(N4CCCCC4=O)c3)ccnc12 [Example 226, 1-[3-[3-(2-Furanylcarbonyl)pyrazolo-[1,5-a]pyrimidin-7-yl]phenyl}-2-piperidinone]
IC50 [2]: 10 to 50 µM

O=C(Nc1cccc(-c2ccnc3c(C(=O)c4cccs4)cnn23)c1)C(Cl)=C(Cl)Cl [Example 144, 2,3,3-trichloro-N-{3-[3-(thien-2-ylcarbonyl)pyrazolo[1,5-a]pyrimidin-7-yl]phenyl}acrylamide]
IC50 [1]: < 1 µM

CC(CCNc1cccc(-c2ccnc3c(C(=O)c4cccs4)cnn23)c1)c1ccccc1 (stereo not drawn) [Example 400, (7-{3-[(3-Phenylbutyl)amino]phenyl}pyrazolo[1,5-a]pyrimidin-3-yl)(thien-2-yl)methanone]
IC50 [2]: 1 to 10 µM

O=C(Nc1cccc(-c2ccnc3c(C(=O)c4cccs4)cnn23)c1)c1cccc2ccccc12 [Example 103, N-{3-[3-(thien-2-ylcarbonyl)pyrazolo[1,5-a]pyrimidin-7-yl]phenyl}-1-naphthamide]
IC50 [1]: < 1 µM

O=C(c1cccs1)c1cnn2c(-c3cccc(F)c3)ccnc12 [Example 225, [7-(3-Fluorophenyl)pyrazolo[1,5-a]-pyrimidin-3-yl}-2-thienyl-methanone]
IC50 [2]: 10 to 50 µM

CC(CC(=O)Nc1cccc(-c2ccnc3c(C(=O)c4cccs4)cnn23)c1)CC(C)(C)C (stereo not drawn) [Example 140, 3,5,5-trimethyl-N-{3-[3-(thien-2-ylcarbonyl)pyrazolo[1,5-a]pyrimidin-7-yl]phenyl}hexanamide]
IC50 [1]: < 1 µM

CCCCCc1ccc(C(=O)Nc2cccc(-c3ccnc4c(C(=O)c5cccs5)cnn34)c2)cc1 [Example 92, 4-pentyl-N-{3-[3-(thien-2-ylcarbonyl)pyrazolo[1,5-a]pyrimidin-7-yl]phenyl}benzamide]
IC50 [1]: 10 to 50 µM

CCN(C(=O)C1CC1)c1cccc(-c2ccnc3c(C(=O)c4ccccc4)cnn23)c1 [Example 253, N-[3-(3-Benzoylpyrazolo[1,5-a]pyrimidin-7-yl)phenyl]-N-ethyl-cyclopropanecarboxamide]
IC50 [2]: 10 to 50 µM

N[C@@H](CC1CCCCC1)C(=O)Nc1cccc(-c2ccnc3c(C(=O)c4cccs4)cnn23)c1 [Example 82, 3-cyclohexyl-N-1-[3-[3-(thien-2-ylcarbonyl)pyrazolo[1,5-a]pyrimidin-7-yl]phenyl}-L-alaninamide]
IC50 [3]: 10 to 50 µM

CN(C)c1ccc(-c2ccnc3c(C(=O)c4cccs4)cnn23)cc1NC(=O)c1ccncc1 [Example 428, N-{2-(Dimethylamino)-5-[3-(thien-2-ylcarbonyl)pyrazolo[1,5-a]pyrimidin-7-yl]phenyl}isonicotinamide]
IC50 [2]: 1 to 10 µM

N[C@@H](Cc1ccccc1)C(=O)Nc1cccc(-c2ccnc3c(C(=O)c4cccs4)cnn23)c1 [Example 81, N-{3-[3-(thien-2-ylcarbonyl)pyrazolo[1,5-a]pyrimidin-7-yl]phenyl}-L-phenylalaninamide]
IC50 [1]: 10 to 50 µM

CCC(=O)Nc1cccc(-c2ccnc3c(C(=O)c4cccs4)cnn23)c1 [Example 251, N-[3-[3-(2-Thienylcarbonyl)pyrazolo[1,5-a]pyrimidin-7-yl]phenyl}-propanamide]
IC50 [4]: < 1 µM

O=C(CNC(=O)OCc1ccccc1)Nc1cccc(-c2ccnc3c(C(=O)c4cccs4)cnn23)c1 [Example 125, benzyl 2-oxo-2-({3-[3-(thien-2-ylcarbonyl)pyrazolo[1,5-a]pyrimidin-7-yl]phenyl}amino)ethylcarbamate]
IC50 [1]: 1 to 10 µM

O=C(NC(=O)C(Cl)(Cl)Cl)Nc1cccc(-c2ccnc3c(C(=O)c4cccs4)cnn23)c1 [Example 9, N-{3-[3-(thien-2-ylcarbonyl)pyrazolo[1,5-a]pyrimidin-7-yl]phenyl}-N′-(trichloroacetyl)urea]
IC50 [1]: 1 to 10 µM

O=C(Nc1cccc(-c2ccnc3c(C(=O)c4cccs4)cnn23)c1)c1ccc(Cl)cc1Cl [Example 289, 2,4-Dichloro-N-{3-[3-(2-thienylcarbonyl)pyrazolo[1,5-a]pyrimidin-7-yl]phenyl}benzamide]
IC50 [2]: 1 to 10 µM

CC(C)CC(C)OC(=O)Nc1cccc(-c2ccnc3c(C(=O)c4cccs4)cnn23)c1 (stereo not drawn) [Example 185, 1,3-dimethylbutyl3-[3-(thien-2-ylcarbonyl)pyrazolo[1,5-a]pyrimidin-7-yl]phenylcarbamate]
IC50 [1]: 1 to 10 µM

CCC(C)C(=O)Nc1cccc(-c2ccnc3c(C(=O)c4cccs4)cnn23)c1 (stereo not drawn) [Example 145]
IC50 [3]: < 1 µM

CC(C)COC(=O)Nc1cccc(-c2ccnc3c(-c4cccs4)cnn23)c1 [Example 407, Isobutyl 3-(3-thien-2-ylpyrazolo[1,5-a]pyrimidin-7-yl)phenylcarbamate]
IC50 [2]: 1 to 10 µM

CCC(CC)C(=O)Nc1cccc(-c2ccnc3c(C(=O)c4cccs4)cnn23)c1 [Example 150, 2-ethyl-N-{3-[3-(thien-2-ylcarbonyl)pyrazolo[1,5-a]pyrimidin-7-yl]phenyl}butanamide]
IC50 [5]: 1 to 10 µM

C=CC(C)OC(=O)Nc1cccc(-c2ccnc3c(C(=O)c4cccs4)cnn23)c1 (stereo not drawn) [Example 182, 1-methylprop-2-enyl 3-[3-(thien-2-ylcarbonyl)pyrazolo[1,5-a]pyrimidin-7-yl]phenylcarbamate]
IC50 [5]: < 1 µM

O=CNc1cccc(-c2ccnc3c(C(=O)c4cccs4)cnn23)c1 [Example 260, N-[3-[3-(2-Thienylcarbonyl)pyrazolo[1,5-a]pyrimidin-7-yl]phenyl}-formamide]
IC50 [4]: 1 to 10 µM

CC(C)C[C@H](N)C(=O)Nc1cccc(-c2ccnc3c(C(=O)c4cccs4)cnn23)c1 [Example 80, N-1-{3-[3-(thien-2-ylcarbonyl)pyrazolo[1,5-a]pyrimidin-7-yl]phenyl}-L-leucinamide]
IC50 [3]: 1 to 10 µM

O=C(c1cccs1)c1cnn2c(-c3cc([N+](=O)[O-])ccc3Cl)ccnc12 [Example 336, [7-(2-Chloro-5-nitrophenyl)pyrazolo[1,5-a]pyrimidin-3-yl](thien-2-yl)methanone]
IC50 [2]: 10 to 50 µM

CC1(C(=O)Nc2cccc(-c3ccnc4c(C(=O)c5cccs5)cnn34)c2)CCCCC1 [Example 143, 1-methyl-N-{3-[3-(thien-2-ylcarbonyl)pyrazolo[1,5-a]pyrimidin-7-yl]phenyl}cyclohexanecarboxamide]
IC50 [1]: < 1 µM

CN(C(=O)C1CCC1)c1cccc(-c2ccnc3c(C(=O)c4ccccc4)cnn23)c1 [Example 232, N-[3-(3-Benzoylpyrazolo-[1,5-a]pyrimidin-7-yl)phenyl]-N-methylcyclobutanecarboxamide]
IC50 [2]: 10 to 50 µM

CC(C)(C)C(=O)NCC(=O)Nc1cccc(-c2ccnc3c(C(=O)c4cccs4)cnn23)c1 [Example 132]
IC50 [3]: 1 to 10 µM
